Article PMC6529423, “The extracellular gate shapes the energy profile of an ABC exporter” (Nature Communications, 2019)

Target: T1, EfrEF (Enterococcus faecalis, UniProt Q832J9+Q832K0)
T1 construct: gene EF_2226; heterodimeric ABC exporter, expressed in Lactococcus lactis NZ9000 from pNZ8048NH3, purified in DDM, reconstituted in proteoliposomes
Test: ATPase stimulation in proteoliposomes; also ethidium efflux from L. lactis cells
Type: biochemical
Conditions: 1 mM ATP, 10 mM MgSO4, 50 mM HEPES pH 7.0, 30 °C; stimulator of ATPase

T1 sequence (Q832K0 entry or part of it): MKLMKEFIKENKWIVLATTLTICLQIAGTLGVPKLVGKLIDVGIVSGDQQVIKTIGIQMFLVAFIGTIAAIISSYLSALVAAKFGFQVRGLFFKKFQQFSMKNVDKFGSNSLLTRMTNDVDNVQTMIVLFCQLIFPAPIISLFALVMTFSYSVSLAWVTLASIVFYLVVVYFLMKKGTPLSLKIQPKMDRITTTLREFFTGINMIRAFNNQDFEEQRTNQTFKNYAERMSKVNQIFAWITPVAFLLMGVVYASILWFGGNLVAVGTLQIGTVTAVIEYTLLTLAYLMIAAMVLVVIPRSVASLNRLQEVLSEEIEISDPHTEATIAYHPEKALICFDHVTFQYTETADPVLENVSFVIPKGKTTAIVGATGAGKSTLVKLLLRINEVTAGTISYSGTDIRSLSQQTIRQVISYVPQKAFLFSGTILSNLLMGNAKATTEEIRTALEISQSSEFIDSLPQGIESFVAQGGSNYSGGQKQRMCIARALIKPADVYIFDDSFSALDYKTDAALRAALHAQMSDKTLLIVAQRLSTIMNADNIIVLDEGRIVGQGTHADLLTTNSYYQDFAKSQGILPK
T1 sequence (Q832J9 entry or part of it): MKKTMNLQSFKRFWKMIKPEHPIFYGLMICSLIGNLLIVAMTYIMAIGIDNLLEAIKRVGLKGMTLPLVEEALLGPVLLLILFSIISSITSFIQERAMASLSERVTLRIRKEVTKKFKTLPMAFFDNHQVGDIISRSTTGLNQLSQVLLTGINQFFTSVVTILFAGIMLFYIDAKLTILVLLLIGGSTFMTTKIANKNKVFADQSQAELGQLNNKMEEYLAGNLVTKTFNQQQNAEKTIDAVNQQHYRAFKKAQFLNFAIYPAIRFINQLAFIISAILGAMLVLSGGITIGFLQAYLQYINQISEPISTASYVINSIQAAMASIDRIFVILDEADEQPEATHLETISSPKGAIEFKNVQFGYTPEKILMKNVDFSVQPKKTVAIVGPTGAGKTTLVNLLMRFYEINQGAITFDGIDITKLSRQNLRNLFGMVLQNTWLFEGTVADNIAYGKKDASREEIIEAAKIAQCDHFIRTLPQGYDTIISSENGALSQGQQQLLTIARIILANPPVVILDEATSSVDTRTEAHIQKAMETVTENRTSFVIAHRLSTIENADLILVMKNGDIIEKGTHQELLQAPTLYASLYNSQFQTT

With `CC[n+]1c(-c2ccccc2)c2cc(N)ccc2c2ccc(N)cc21` [ethidium] the “ATPase stimulation in proteoliposomes; also ethidium efflux from L. lactis cells” value was “Wild-type EfrEF efficiently expels ethidium from the cell”.
